In patent US20180318275A1, “COMBINATION THERAPY USING PI3K INHIBITOR AND MDM2 INHIBITOR” (Novartis AG, priority 2015, published 2018):

Experiments:
Format in all cases: cell-based
[1] = system: GP2d; assay: Cell proliferation (cell count by microscopy), Example 3; conditions: single agent, 72 h, cell count relative to DMSO, unit (micromolar, top dose 10 μM)
Method: (§1) COMPOUNDS A, B and C were dissolved in 100% DMSO (Sigma, Catalog number D2650) at concentrations of 20 mM and stored at −20° C. until use. Compounds were arrayed in drug master plates (Greiner, Catalog number 788876) and serially diluted 3-fold (7 steps) at 2000× concentration.
(§2) To test the effect of the combination of COMPOUND A, COMPOUND B, and COMPOUND C on cell proliferation cells were plated in black 384-well microplates with clear bottom (Matrix/Thermo Scientific, Catalog number 4332) in 50 μL media per well at cell densities between 500 and 1250 cells/well (Table 1 above) and allowed to incubate at 37 degrees, 5% CO2 for 24 h. After 24 h one 384-well plate per cell line was prepared for cell counting by microscopy (see below) without receiving treatment (=‘baseline’). The other cell plates were treated by transferring 25 nL of the 2000× compound from drug master plates using an ATS acoustic liquid dispenser (ECD Biosystems) and resulting in a final 1× concentration. COMPOUND A was used over a final concentration range of 13 nM-10 μM, COMPOUND B was used over a final concentration range of 13 nM-10 μM, and COMPOUND C was used over a final concentration range of 13 nM-10 μM (7 1:3 dilution steps). In order to assess the effect of the triple combination all individual COMPOUNDS (A, B, C), all three pair wise combinations (A+B, A+C, B+C), and the triple combination (A+B+C) were tested in the same experiment. Pair wise combinations and the triple combination were tested at a fixed ratio of 1:1 (for drug pairs) and 1:1:1 (for the drug triple) at each dilution resulting in 7 combination conditions per treatment. […] After compound addition 50 nL of 2 mM CellEvent Caspase-3/7 Green Detection Reagent (ThermoFisher, Catalog number C10423) were added to one of the three replicates using the HP D300 Digital Dispenser (Tecan). Caspase 3/7 induction was measured as a proxy for apoptosis induced by the treatments. Cells were treated for 72 h to 96 h depending on their doubling time (Table 1), and Caspase 3/7 activation was measured every 24 h by microscopy using an InCell Analyzer 2000 (GE Healthcare) equipped with a 4× objective and FITC excitation/emission filters. At the end of the treatment cells were prepared for cell counting by microscopy. Cells were fixed and permeabilised for 45 minutes in 4% PFA (Electron Microscopy Sciences, Catalog number 15714), 0.12% TX-100 (Electron Microscopy Sciences, Catalog number 22140) in PBS (Boston Bioproducts, Catalog number BM-220). After washing cells three times with PBS their DNA was stained for 30 minutes with Hoechst 33342 (ThermoFisher, Catalog number H3570) at a final concentration of 4 μg/mL. Cells were washed three times with PBS and then plates were heat-sealed using a PlateLoc (Agilent Technologies) with aluminum seals (Agilent Technologies, Catalog number 06644-001) and stored at 4° C. until imaging. All cells per well/treatment were captured in a single image by fluorescence microscopy using an InCell Analyzer 2000 (GE Healthcare) equipped with a 4× objective and DAPI excitation/emission filters.
(§3) Images were analyzed after adapting previously described methods (Horn, Sandmann et al. 2011, Nat. Methods 8(4): 341-346) and using the Bioconductor package EBImage in R (Pau, Fuchs et al. 2010, Bioinformatics 26(7):979-981). Objects in both channels, DAPI (for Hoechst/DNA) and FITC (for Caspase 3/7), were segmented separately by adaptive thresholding and counted. A threshold for Caspase 3/7 positive objects was defined manually per cell line after comparing negative controls (DMSO) and positive controls (Staurosporine). By analyzing 17 additional object/nuclei features in the DNA channel (shape and intensity features) debris/fragmented nuclei were identified. To this end per cell line the distributions of the additional features between positive controls (Staurosporine) and negative controls (DMSO) were compared manually. […]

[2] = system: HCT-116; assay: as above; conditions: Homo sapiens; HCT-116, single agent, 72 h, cell count relative to DMSO
Method: as §1, §2, §3

[3] = system: LS-180; assay: as above; conditions: Homo sapiens, LS180; LS-160 (so in the source), single agent, 72 h, cell count relative to DMSO
Method: as §1, §2, §3

[4] = system: LoVo; assay: as above; conditions: Homo sapiens, single agent, 96 h, cell count relative to DMSO
Method: as §1, §2, §3

[5] = system: RKO; assay: as above; conditions: Homo sapiens, single agent, 72 h, cell count relative to DMSO
Method: as §1, §2, §3

[6] = system: 5 TP53 wild type colorectal cancer cell lines; assay: Cell proliferation over the cell line panel, Example 3; conditions: Example 3, panel of 5 lines, 13 nM-10 μM
Method: To test the effect of the combination of COMPOUND A, COMPOUND B, and COMPOUND C on cell proliferation cells were plated in black 384-well microplates with clear bottom (Matrix/Thermo Scientific, Catalog number 4332) in 50 μL media per well at cell densities between 500 and 1250 cells/well (Table 1 above) and allowed to incubate at 37 degrees, 5% CO2 for 24 h. After 24 h one 384-well plate per cell line was prepared for cell counting by microscopy (see below) without receiving treatment (=‘baseline’). The other cell plates were treated by transferring 25 nL of the 2000× compound from drug master plates using an ATS acoustic liquid dispenser (ECD Biosystems) and resulting in a final 1× concentration. COMPOUND A was used over a final concentration range of 13 nM-10 μM, COMPOUND B was used over a final concentration range of 13 nM-10 μM, and COMPOUND C was used over a final concentration range of 13 nM-10 μM (7 1:3 dilution steps). In order to assess the effect of the triple combination all individual COMPOUNDS (A, B, C), all three pair wise combinations (A+B, A+C, B+C), and the triple combination (A+B+C) were tested in the same experiment. […] Caspase 3/7 induction was measured as a proxy for apoptosis induced by the treatments. Cells were treated for 72 h to 96 h depending on their doubling time (Table 1), and Caspase 3/7 activation was measured every 24 h by microscopy using an InCell Analyzer 2000 (GE Healthcare) equipped with a 4× objective and FITC excitation/emission filters. […] All cells per well/treatment were captured in a single image by fluorescence microscopy using an InCell Analyzer 2000 (GE Healthcare) equipped with a 4× objective and DAPI excitation/emission filters.
Images were analyzed after adapting previously described methods (Horn, Sandmann et al. 2011, Nat. Methods 8(4): 341-346) and using the Bioconductor package EBImage in R (Pau, Fuchs et al. 2010, Bioinformatics 26(7):979-981). Objects in both channels, DAPI (for Hoechst/DNA) and FITC (for Caspase 3/7), were segmented separately by adaptive thresholding and counted. […]

| Compound | IC50 [1] [nM] | IC50 [2] [nM] | IC50 [3] [nM] | IC50 [4] [nM] | IC50 [5] [nM] | Single agent growth inhibition, in words [6] |
| --- | --- | --- | --- | --- | --- | --- |
| Cc1nc(NC(=O)N2CCC[C@H]2C(N)=O)sc1-c1ccnc(C(C)(C)C(F)(F)F)c1 [COMPOUND A, (S)-Pyrrolidine-1,2-dicarboxylic acid 2-amide 1-({4-methyl-5-[2-(2,2,2-trifluoro-1,1-dimethyl-ethyl)-pyridin-4-yl]-thiazol-2-yl}-amide)] | 500 | 9800 | > 10000 | > 10000 | 3900 | inhibited the growth of 2 of the cell lines with micromolar IC50 values, and was active only at the highest dose (10 μM) in the 3 other lines |
| COc1cc2c(cc1OC(C)C)[C@H](c1ccc(Cl)cc1)N(c1ccc(N(C)C[C@H]3CC[C@H](N4CCN(C)C(=O)C4)CC3)cc1)C(=O)C2 [COMPOUND B, (S)-1-(4-Chloro-phenyl)-7-isopropoxy-6-methoxy-2-(4-{methyl-[4-(4-methyl-3-oxo-piperazin-1-yl)-trans-cyclohexylmethyl]-amino}-phenyl)-1,4-dihydro-2H-isoquinolin-3-one] | 800 | 100 | 700 | 600 | 1200 | inhibited the growth of cell lines with sub-micromolar to micromolar IC50 values |
